Experiments:
Type in all cases: in vivo
[1] = tested on: Echinochloa crus-galli (ECHCG); assay: Pre-emergence biological efficacy, glasshouse pot test; details: 312 h, pre-emergence, 1,000 g/ha, evaluated after 13 days (100=total damage; 0=no damage), read-out: Percentage damage ECHCG
How it was run: (§1)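 Standard soil, pots, sown then sprayed at day 1 with 1000 or 250 g/ha test compound. Glasshouse: 24/16 °C, 14 h photoperiod, 65% humidity, twice-daily watering. Evaluation day 13, 0–100 damage score.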

Solanum nigrum (SOLNI) [2] = assay: as above; details: 312 h, pre-emergence, 1,000 g/ha, evaluated after 13 days (100=total damage; 0=no damage), read-out: Percentage damage SOLNI
How it was run: as §1

Setaria faberi (SETFA) [3] = assay: as above; details: 312 h, pre-emergence, 1,000 g/ha, evaluated after 13 days (100=total damage; 0=no damage), read-out: Percentage damage SETFA
How it was run: as §1

[4] = tested on: Alopecurus myosuroides (ALOMY); assay: as above; details: 312 h, pre-emergence, 1,000 g/ha, evaluated after 13 days (100=total damage; 0=no damage), read-out: Percentage damage ALOMY
How it was run: as §1

[5] = tested on: Ipomea hederaceae (IPOHE); assay: as above; details: Ipomoea hederacea, 312 h; pre-emergence, 1,000 g/ha, evaluated after 13 days (100=total damage; 0=no damage); read-out: Percentage damage IPOHE
How it was run: as §1

[6] = tested on: Amaranthus retoflexus (AMARE); assay: as above; details: Amaranthus retroflexus, 312 h; pre-emergence, 1,000 g/ha, evaluated after 13 days (100=total damage; 0=no damage); read-out: Percentage damage AMARE
How it was run: as §1

[7] = tested on: Echinochloa crus-galli (ECHCG); assay: Post-emergence biological efficacy, glasshouse pot test; details: 312 h, post-emergence, 1,000 g/ha, evaluated after 13 days (100=total damage; 0=no damage), read-out: Percentage damage caused to weed species, ECHCG
How it was run: (§2)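 Scored 13 days after spraying on a 0 (no damage) to 100 (total damage) scale. Treatment was a post-emergence spray at 1000 or 250 g/ha, from acetone/water 50:50 plus 0.5% Tween 20, onto 8-day-old plants in soil pots. Growth at 24/16° C, 14 h photoperiod, 65% humidity, watered twice daily.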

Solanum nigrum (SOLNI) [8] = assay: as above; details: 312 h, post-emergence, 1,000 g/ha, evaluated after 13 days (100=total damage; 0=no damage), read-out: Percentage damage caused to weed species, SOLNI
How it was run: as §2

Setaria faberi (SETFA) [9] = assay: as above; details: 312 h, post-emergence, 1,000 g/ha, evaluated after 13 days (100=total damage; 0=no damage), read-out: Percentage damage caused to weed species, SETFA
How it was run: as §2

[10] = tested on: Alopecurus myosuroides (ALOMY); assay: as above; details: 312 h, post-emergence, 1,000 g/ha, evaluated after 13 days (100=total damage; 0=no damage), read-out: Percentage damage caused to weed species, ALOMY
How it was run: as §2

[11] = tested on: Ipomea hederaceae (IPOHE); assay: as above; details: Ipomoea hederacea, 312 h; post-emergence, 1,000 g/ha, evaluated after 13 days (100=total damage; 0=no damage); read-out: Percentage damage caused to weed species, IPOHE
How it was run: as §2

[12] = tested on: Amaranthus retoflexus (AMARE); assay: as above; details: Amaranthus retroflexus, 312 h; post-emergence, 1,000 g/ha, evaluated after 13 days (100=total damage; 0=no damage); read-out: Percentage damage caused to weed species, AMARE
How it was run: as §2

| SMILES | pest or weed control at 1000 g/ha [1] [%] | pest or weed control at 1000 g/ha (Solanum nigrum (SOLNI) [2]) [%] | pest or weed control at 1000 g/ha (Setaria faberi (SETFA) [3]) [%] | pest or weed control at 1000 g/ha [4] [%] | pest or weed control at 1000 g/ha [5] [%] | pest or weed control at 1000 g/ha [6] [%] | pest or weed control at 1000 g/ha [7] [%] | pest or weed control at 1000 g/ha (Solanum nigrum (SOLNI) [8]) [%] | pest or weed control at 1000 g/ha (Setaria faberi (SETFA) [9]) [%] | pest or weed control at 1000 g/ha [10] [%] | pest or weed control at 1000 g/ha [11] [%] | pest or weed control at 1000 g/ha [12] [%] |
| --- | --- | --- | --- | --- | --- | --- | --- | --- | --- | --- | --- | --- |
| CCCC(F)(CNc1nc(C2CC2)nc(C(=O)OC)c1Cl)c1ccc(Cl)cc1Cl (stereo not drawn) [Compound 4-244, 5-Chloro-2-cyclopropyl-4-[2-(2,4-dichloro-phenyl)-2-fluoro-pentylamino]-6-methoxycarbonyl-pyrimidine] | 0 | 0 | 0 | 0 | 0 | 30 | 0 | 20 | 0 | 0 | 50 | 20 |
| COC(=O)c1nc(C2CC2)nc(NCCCN2CCCC2=O)c1Cl [Compound 4-246, 5-Chloro-2-cyclopropyl-6-methoxycarbonyl-4-[3-(2-oxo-pyrrolidin-1-yl)propylamino]-pyrimidine] | 0 | 20 | 0 | 0 | 30 | 80 | 0 | 50 | 30 | 0 | 60 | 100 |
| COC(=O)c1nc(C2CC2)nc(NCCCN2CCCCC2C)c1Cl (stereo not drawn) [Compound 4-247, 5-Chloro-2-cyclopropyl-6-methoxycarbonyl-4-[3-(2-methyl-piperidin-1-yl)-propylamino]-pyrimidine] | 10 | 70 | 10 | 10 | 20 | 30 | 20 | 50 | 20 | 10 | 50 | 100 |
| COC(=O)c1nc(C2CC2)nc(NCCCc2ccccc2)c1Cl [Compound 4-249, 5-Chloro-2-cyclopropyl-6-methoxycarbonyl-4-(3-phenylpropyl-amino)pyrimidine] | 50 | 80 | 50 | 20 | 100 | 60 | 50 | 100 | 70 | 30 | 90 | 100 |
| COC(=O)c1nc(C2CC2)nc(NCCCn2ccnc2)c1Cl [Compound 4-250, 5-Chloro-2-cyclopropyl-4-[3-(imidazol-1-yl)propylamino]-6-methoxycarbonyl-pyrimidine] | 0 | 40 | 0 | 0 | 80 | 90 | 30 | 70 | 50 | 0 | 100 | 100 |
| COC(=O)c1nc(C2CC2)nc(NCCCc2cccnc2)c1Cl [Compound 4-251, 5-Chloro-2-cyclopropyl-6-methoxycarbonyl-4-[3-(pyrid-3-yl)propylamino]-pyrimidine] | 0 | 20 | 0 | 0 | 20 | 40 | 40 | 80 | 50 | 10 | 50 | 100 |
| COC(=O)c1nc(C2CC2)nc(NC(C)CCc2ccccc2)c1Cl (stereo not drawn) [Compound 4-252, 5-Chloro-2-cyclopropyl-6-methoxycarbonyl-4-(3-phenyl-1-methyl-propylamino)-pyrimidine] | 0 | 0 | 0 | 0 | 0 | 20 | 0 | 60 | 30 | 10 | 60 | 100 |
| COC(=O)c1nc(C2CC2)nc(NCCCCc2ccccc2)c1Cl [Compound 4-253, 5-Chloro-2-cyclopropyl-6-methoxycarbonyl-4-(4-phenylbutyl-amino)pyrimidine] | 20 | 80 | 30 | 10 | 100 | 50 | 40 | 100 | 50 | 10 | 70 | 100 |
| COC(=O)c1nc(C2CC2)nc(NCC(O)c2ccccc2)c1Cl (stereo not drawn) [Compound 4-257, 5-Chloro-2-cyclopropyl-4-(2-hydroxy-2-phenyl-ethylamino)-6-methoxycarbonyl-pyrimidine] | 60 | 90 | 80 | 40 | 100 | 100 | 70 | 90 | 80 | 60 | 100 | 100 |
| COC(=O)c1nc(C2CC2)nc(NCC(O)c2cccc(O)c2)c1Cl (stereo not drawn) [Compound 4-258, 5-Chloro-2-cyclopropyl-4-[2-hydroxy-2-(3-hydroxyphenyl)-ethylamino]-6-methoxycarbonyl-pyrimidine] | 30 | 100 | 40 | 30 | 100 | 100 | 60 | 80 | 70 | 30 | 90 | 100 |
| COC(=O)c1nc(C2CC2)nc(NCC(O)c2ccc(O)cc2)c1Cl (stereo not drawn) [Compound 4-259, 5-Chloro-2-cyclopropyl-4-[2-hydroxy-2-(4-hydroxyphenyl)-ethylamino]-6-methoxycarbonyl-pyrimidine] | 30 | 90 | 30 | 10 | 100 | 100 | 30 | 80 | 80 | 20 | 70 | 100 |

— US20110086759A1, “CHEMICAL COMPOUNDS” (SYNGENTA CROP PROTECTION, INC., priority 2007, published 2011)
